Measured values from BindingDB's records for doi:10.1016/s0960-894x(99)00298-x (Agrevo, 1999).

Test: Inhibition of Pisum sativum (pea) adenylate deaminase

IC50: 100 nM
SMILES: O=P(O)(O)OC[C@H]1O[C@@H](c2n[nH]c3cncnc23)[C@H](O)[C@@H]1O
